Source: US9708314B2, “Heterocyclic amide compound” (NISSAN CHEMICAL INDUSTRIES, LTD., priority 2013, dated 2017)

Key:
Format in all cases: in vivo
Monochoria vaginalis = assay: Test Example 2: herbicidal activity, application during weed generation in submerged conditions; settings: Eighteenth Table; application herbicide amount 320 g/ha
How it was run: (§1)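 Scored three weeks post-application on a 0–5 scale (5: ≥90% herbicidal ratio, almost withered; 0: ≤5%). Plants raised from mixed-sown seed in submerged alluvial soil (4 cm water), 25–30 °C greenhouse; water-diluted emulsion applied onto water surface at one- to two-leaf stage, dose in g/ha.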

[1] = test system: Echinochloa oryzacola Vasing.; assay: as above; settings: Eighteenth Table; application herbicide amount 320 g/ha
How it was run: as §1

Scirpus juncoides = assay: as above; settings: Eighteenth Table; application herbicide amount 320 g/ha
How it was run: as §1

[2] = test system: directly sowed Oryza sativa; assay: Test Example 4: effect on crop by application to foliage (diluvial soil, plastic box)
How it was run: (§2)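 Seeds sown in sterilized diluvial soil, covered ~1.5 cm, grown 14 days in greenhouse at 25° C. to 30° C. Emulsion formulation diluted in water to set rate (g/ha) and sprayed onto stems and leaves. Effect scored visually 3 weeks later on 0–5 scale (5 = ≥90% herbicidal ratio, 0 = ≤5%).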

Brassica campestris L. = assay: as above; settings: for g (Brassica campestris L.) effect on crop grade: foliage application
How it was run: as §2

Glycine max = assay: as above; settings: for d (Glycine max) effect on crop grade: Application herbicide amount 320 g/ha
How it was run: as §2

[3] = test system: Beta vulgaris ssp. vulgaris; assay: as above; settings: for f (Beta vulgaris ssp. vulgaris) effect on crop grade: foliage application
How it was run: as §2

Zea mays = assay: as above; settings: for c (Zea mays) effect on crop grade: Application herbicide amount 320 g/ha
How it was run: as §2

Triticum aestivum = assay: as above; settings: for e (Triticum aestivum) effect on crop grade: foliage application
How it was run: as §2

Lolium multiflorum Lam. = assay: Test Example 4: herbicidal effect by application to foliage (diluvial soil, plastic box); settings: for K (Lolium multiflorum Lam.) herbicidal effect grade: foliage application
How it was run: as §2

Stellaria media = assay: as above; settings: for P (Stellaria media) herbicidal effect grade: foliage application
How it was run: as §2

Apera spica-venti. = assay: as above; settings: for L (Apera spica-venti.) herbicidal effect grade: foliage application
How it was run: as §2

Galium spurium = assay: as above; settings: foliage application
How it was run: as §2

Chenopodium album = assay: as above; settings: for O (Chenopodium album) herbicidal effect grade: foliage application
How it was run: as §2

Abutilon theophrasti = assay: as above; settings: for M (Abutilon theophrasti) herbicidal effect grade: foliage application
How it was run: as §2

Veronica persica = assay: as above; settings: for R (Veronica persica) herbicidal effect grade: foliage application
How it was run: as §2

[4] = test system: Echinochloa crus-galli var. crus-galli; assay: as above; settings: for H (Echinochloa crus-galli var. crus-galli) herbicidal effect grade: foliage application
How it was run: as §2

Alopecurus myosuroides = assay: as above; settings: for J (Alopecurus myosuroides) herbicidal effect grade: foliage application
How it was run: as §2

Amaranthus retroflexus = assay: as above; settings: for N (Amaranthus retroflexus) herbicidal effect grade: foliage application
How it was run: as §2

Digitaria ciliaris = assay: as above; settings: for F (Digitaria ciliaris) herbicidal effect grade: foliage application
How it was run: as §2

Avena fatua = assay: as above; settings: for I (Avena fatua) herbicidal effect grade: foliage application
How it was run: as §2

[5] = Application herbicide amount 320 g/ha
[6] = application to foliage, application herbicide amount 320 g/ha

Compound	C (Monochoria vaginalis) herbicidal ratio grade (Monochoria vaginalis)	A (Echinochloa oryzicola Vasing.) herbicidal ratio grade [1]	B (Scirpus juncoides) herbicidal ratio grade (Scirpus juncoides)	g (Brassica campestris L.) effect on crop grade (Brassica campestris L.; [5])	d (Glycine max) effect on crop grade (Glycine max; foliage application)	f (Beta vulgaris ssp. vulgaris) effect on crop grade [3, 5]	c (Zea mays) effect on crop grade (Zea mays; foliage application)	e (Triticum aestivum) effect on crop grade (Triticum aestivum; [5])	K (Lolium multiflorum Lam.) herbicidal effect grade (Lolium multiflorum Lam.; [5])	P (Stellaria media) herbicidal effect grade (Stellaria media; [5])	L (Apera spica-venti.) herbicidal effect grade (Apera spica-venti.; [5])	Q (Galium spurium) herbicidal effect grade (Galium spurium; [5])	O (Chenopodium album) herbicidal effect grade (Chenopodium album; [5])	M (Abutilon theophrasti) herbicidal effect grade (Abutilon theophrasti; [5])	R (Veronica persica) herbicidal effect grade (Veronica persica; [5])	H (Echinochloa crus-galli var. crus-galli) herbicidal effect grade [4, 5]	J (Alopecurus myosuroides) herbicidal effect grade (Alopecurus myosuroides; [5])	N (Amaranthus retroflexus) herbicidal effect grade (Amaranthus retroflexus; [5])	F (Digitaria ciliaris) herbicidal effect grade (Digitaria ciliaris; [5])	I (Avena fatua) herbicidal effect grade (Avena fatua; [5])	further results
CC[S+]([O-])c1nnc2c(C(=O)Nc3nnnn3C)ccc(C(F)(F)F)n12 (stereo not shown) [2-031]	4 (Herbicidal ratio of 70% or more and less than 90%)	5 (Herbicidal ratio of 90% or more (almost completely withered))	4 (Herbicidal ratio of 70% or more and less than 90%)																		d (directly sowed Oryza sativa) effect on crop grade ([2]; foliage application, 320 g/ha): 5 (Herbicidal ratio of 90% or more (almost completely withered)); g (Brassica campestris L.) effect on crop grade (Brassica campestris L.; 320 g/ha): 5 (Herbicidal ratio of 90% or more (almost completely withered)); c (Glycine max) effect on crop grade (Glycine max; foliage application, 320 g/ha): 5 (Herbicidal ratio of 90% or more (almost completely withered)); f (Beta vulgaris ssp. vulgaris) effect on crop grade ([3]; 320 g/ha): 5 (Herbicidal ratio of 90% or more (almost completely withered)); b (Zea mays) effect on crop grade (Zea mays; foliage application, 320 g/ha): 5 (Herbicidal ratio of 90% or more (almost completely withered)); e (Triticum aestivum) effect on crop grade (Triticum aestivum; 320 g/ha): 5 (Herbicidal ratio of 90% or more (almost completely withered)); K (Lolium multiflorum Lam.) herbicidal effect grade (Lolium multiflorum Lam.; 320 g/ha): 5 (Herbicidal ratio of 90% or more (almost completely withered)); P (Stellaria media) herbicidal effect grade (Stellaria media; 320 g/ha): 5 (Herbicidal ratio of 90% or more (almost completely withered)); L (Apera spica-venti.) herbicidal effect grade (Apera spica-venti.; 320 g/ha): 5 (Herbicidal ratio of 90% or more (almost completely withered)); Q (Galium spurium) herbicidal effect grade (Galium spurium; 320 g/ha): 5 (Herbicidal ratio of 90% or more (almost completely withered)); O (Chenopodium album) herbicidal effect grade (Chenopodium album; 320 g/ha): 5 (Herbicidal ratio of 90% or more (almost completely withered)); M (Abutilon theophrasti) herbicidal effect grade (Abutilon theophrasti; 320 g/ha): 5 (Herbicidal ratio of 90% or more (almost completely withered)); R (Veronica persica) herbicidal effect grade (Veronica persica; 320 g/ha): 5 (Herbicidal ratio of 90% or more (almost completely withered)); H (Echinochloa crus-galli var. crus-galli) herbicidal effect grade ([4]; 320 g/ha): 5 (Herbicidal ratio of 90% or more (almost completely withered)); J (Alopecurus myosuroides) herbicidal effect grade (Alopecurus myosuroides; 320 g/ha): 4 (Herbicidal ratio of 70% or more and less than 90%); N (Amaranthus retroflexus) herbicidal effect grade (Amaranthus retroflexus; 320 g/ha): 5 (Herbicidal ratio of 90% or more (almost completely withered)); F (Digitaria ciliaris) herbicidal effect grade (Digitaria ciliaris; 320 g/ha): 5 (Herbicidal ratio of 90% or more (almost completely withered)); I (Avena fatua) herbicidal effect grade (Avena fatua; 320 g/ha): 5 (Herbicidal ratio of 90% or more (almost completely withered))
Cc1nnc(NC(=O)c2ccc(C(F)(F)F)n3c(N4CC[S+]([O-])CC4)nnc23)o1 [1-119]	0 (Herbicidal ratio of 5% or less (almost no effect))	4 (Herbicidal ratio of 70% or more and less than 90%)	1 (Herbicidal ratio of 5% or more and less than 20%)	5 (Herbicidal ratio of 90% or more (almost completely withered))	4 (Herbicidal ratio of 70% or more and less than 90%)	5 (Herbicidal ratio of 90% or more (almost completely withered))	2 (Herbicidal ratio of 20% or more and less than 40%)	3 (Herbicidal ratio of 40% or more and less than 70%)	2 (Herbicidal ratio of 20% or more and less than 40%)	4 (Herbicidal ratio of 70% or more and less than 90%)	3 (Herbicidal ratio of 40% or more and less than 70%)	4 (Herbicidal ratio of 70% or more and less than 90%)	5 (Herbicidal ratio of 90% or more (almost completely withered))	5 (Herbicidal ratio of 90% or more (almost completely withered))	5 (Herbicidal ratio of 90% or more (almost completely withered))	5 (Herbicidal ratio of 90% or more (almost completely withered))	3 (Herbicidal ratio of 40% or more and less than 70%)	5 (Herbicidal ratio of 90% or more (almost completely withered))	5 (Herbicidal ratio of 90% or more (almost completely withered))	3 (Herbicidal ratio of 40% or more and less than 70%)	b (directly sowed Oryza sativa) effect on crop grade ([2]; Application herbicide amount 320 g/ha, foliage application): 3 (Herbicidal ratio of 40% or more and less than 70%)
CC(C)c1nnc2c(C(=O)N(C)c3nnnn3C)ccc(C(F)(F)F)n12 [2-023]	1 (Herbicidal ratio of 5% or more and less than 20%)	0 (Herbicidal ratio of 5% or less (almost no effect))	1 (Herbicidal ratio of 5% or more and less than 20%)																		b: effect on crop, directly sowed Oryza sativa [2, 6]: 0 (Herbicidal ratio of 5% or less (almost no effect)); g: effect on crop, Brassica campestris L. (Brassica campestris L.; [6]): 1 (Herbicidal ratio of 5% or more and less than 20%); d: effect on crop, Glycine max (Glycine max; [6]): 1 (Herbicidal ratio of 5% or more and less than 20%); f: effect on crop, Beta vulgaris ssp. vulgaris [3, 6]: 4 (Herbicidal ratio of 70% or more and less than 90%); c: effect on crop, Zea mays (Zea mays; [6]): 0 (Herbicidal ratio of 5% or less (almost no effect)); e: effect on crop, Triticum aestivum (Triticum aestivum; [6]): 0 (Herbicidal ratio of 5% or less (almost no effect)); K: herbicidal effect on Lolium multiflorum Lam. (Lolium multiflorum Lam.; [6]): 0 (Herbicidal ratio of 5% or less (almost no effect)); P: herbicidal effect on Stellaria media (Stellaria media; [6]): 3 (Herbicidal ratio of 40% or more and less than 70%); L: herbicidal effect on Apera spica-venti. (Apera spica-venti.; [6]): 0 (Herbicidal ratio of 5% or less (almost no effect)); O: herbicidal effect on Chenopodium album (Chenopodium album; [6]): 4 (Herbicidal ratio of 70% or more and less than 90%); M: herbicidal effect on Abutilon theophrasti (Abutilon theophrasti; [6]): 3 (Herbicidal ratio of 40% or more and less than 70%); R: herbicidal effect on Veronica persica (Veronica persica; [6]): 4 (Herbicidal ratio of 70% or more and less than 90%); H: herbicidal effect on Echinochloa crus-galli var. crus-galli [4, 6]: 4 (Herbicidal ratio of 70% or more and less than 90%); J: herbicidal effect on Alopecurus myosuroides (Alopecurus myosuroides; [6]): 0 (Herbicidal ratio of 5% or less (almost no effect)); N: herbicidal effect on Amaranthus retroflexus (Amaranthus retroflexus; [6]): 5 (Herbicidal ratio of 90% or more (almost completely withered)); F: herbicidal effect on Digitaria ciliaris (Digitaria ciliaris; [6]): 1 (Herbicidal ratio of 5% or more and less than 20%); I: herbicidal effect on Avena fatua (Avena fatua; [6]): 0 (Herbicidal ratio of 5% or less (almost no effect))
CC(=O)CSc1nnc2c(C(=O)Nc3nnc(C)o3)ccc(C(F)(F)F)n12 [1-125]	1 (Herbicidal ratio of 5% or more and less than 20%)	0 (Herbicidal ratio of 5% or less (almost no effect))	2 (Herbicidal ratio of 20% or more and less than 40%)	3 (Herbicidal ratio of 40% or more and less than 70%)	3 (Herbicidal ratio of 40% or more and less than 70%)	5 (Herbicidal ratio of 90% or more (almost completely withered))	2 (Herbicidal ratio of 20% or more and less than 40%)	1 (Herbicidal ratio of 5% or more and less than 20%)	0 (Herbicidal ratio of 5% or less (almost no effect))	4 (Herbicidal ratio of 70% or more and less than 90%)	0 (Herbicidal ratio of 5% or less (almost no effect))	0 (Herbicidal ratio of 5% or less (almost no effect))	5 (Herbicidal ratio of 90% or more (almost completely withered))	3 (Herbicidal ratio of 40% or more and less than 70%)	0 (Herbicidal ratio of 5% or less (almost no effect))	4 (Herbicidal ratio of 70% or more and less than 90%)	0 (Herbicidal ratio of 5% or less (almost no effect))	3 (Herbicidal ratio of 40% or more and less than 70%)	4 (Herbicidal ratio of 70% or more and less than 90%)	1 (Herbicidal ratio of 5% or more and less than 20%)	
